{
  "source": "PubChem BioAssay AID1259411",
  "about": "(Chemical Carcinogenesis Research Information System (CCRIS), 2018)",
  "test_system": "rodent carcinogenicity bioassays, tumor incidence",
  "assay": "CCRIS carcinogenicity studies",
  "method_in_brief": "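Archive of carcinogenicity, mutagenicity, tumor promotion and tumor inhibition results drawn from journals, NCI reports and other sources, expert-reviewed; covers 1985-2011 and is no longer updated.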",
  "note": "The source made the active and inactive calls. The rule behind the calls is not given here.",
  "data": [
    {"smiles": "Cc1c2ccccc2c(C)c2c1ccc1ccccc12", "values": [
      {"measurement": "carcinogen call", "setting": "Species: MOUSE, Strain/Sex: SWISS/MALE,FEMALE, Route: SUBCUTANEOUS, Dose: 30-40 UG IN 0.02 ML OF 1% AQ GEL, Tumor Site: Type of Lesion: LUNG, LYMPHATIC SYSTEM: MALIGNANT LYMPHOMA", "result": "active; positive"},
      {"measurement": "carcinogen call", "setting": "Species: RAT, Strain/Sex: ALBINO/MALE,FEMALE, Route: SUBCUTANEOUS, Dose: 5 MG IN 0.5 ML OLIVE OIL ONCE, Tumor Site: Type of Lesion: INJECTION SITE: RHABDOMYOSARCOMA", "result": "active; positive"},
      {"measurement": "carcinogen call", "setting": "Species: RAT, Strain/Sex: BIRMINGHAM/ MALE, FEMALE, Route: DERMAL, Dose: 0.5, 1.6% SOLN IN OLIVE OIL ONCE EVERY 2 WK, Tumor Site: Type of Lesion: INTEGUMENTARY SYSTEM (SKIN): SQUAMOUS PAPILLOMA, KERATOACANTHOMA, SQUAMOUS CELL CARCINOMA, MAMMARY GLAND", "result": "active; positive"},
      {"measurement": "carcinogen call", "setting": "Species: RAT, Strain/Sex: F344/FEMALE, 3 WKS OF AGE, Route: GAVAGE, Dose: 50 MG/KG ONCE (STUDY DURATION: 36 WKS), Tumor Site: Type of Lesion: MAMMARY GLAND: CARCINOMA", "result": "20% tumor incidence; 0.23 carcinomas/rat; immature rats less susceptible"},
      {"measurement": "carcinogen call", "setting": "Species: RAT, Strain/Sex: F344/FEMALE, 8 WKS OF AGE, Route: GAVAGE, Dose: 50 MG/KG ONCE (STUDY DURATION: 36 WKS), Tumor Site: Type of Lesion: MAMMARY GLAND: CARCINOMA", "result": "69% tumor incidence; 1.27 carcinomas/rat; mature rats more susceptible"},
      {"measurement": "carcinogen call", "setting": "Species: RAT, Strain/Sex: OUTBRED/ MALE, FEMALE, Route: DERMAL, Dose: 0.5, 1.6% SOLN IN OLIVE OIL ONCE EVERY 2 WK, Tumor Site: Type of Lesion: INTEGUMENTARY SYSTEM (SKIN): SQUAMOUS PAPILLOMA, KERATOACANTHOMA, SQUAMOUS CELL CARCINOMA, MAMMARY GLAND", "result": "active; positive"},
      {"measurement": "carcinogen call", "setting": "Species: RAT, Strain/Sex: SPRAGUE-DAWLEY/FEMALE, Route: GAVAGE, Dose: 10 MG IN 0.5 ML SESAME OIL ONCE, Tumor Site: Type of Lesion: MAMMARY GLAND", "result": "active; positive"},
      {"measurement": "carcinogen call", "setting": "Species: RAT, Strain/Sex: SPRAGUE-DAWLEY/FEMALE, Route: GAVAGE, Dose: 20 MG IN 1 ML SESAME OIL ONCE, Tumor Site: Type of Lesion: MAMMARY GLAND: FIBROADENOMA, CARCINOMA", "result": "active; positive"},
      {"measurement": "carcinogen call", "setting": "Species: RAT, Strain/Sex: SPRAGUE-DAWLEY/FEMALE, Route: INJECTION, Dose: 0, 0.25, 1 UMOL PER MAMMARY GLAND (STUDY DURATION: 24 WK), Dose: 0, 0.25, 1 UMOL PER MAMMARY GLAND (STUDY DURATION: 24 WK), Tumor Site: Type of Lesion: MAMMARY GLAND: TUMOR", "result": "active; positive"},
      {"measurement": "carcinogen call", "setting": "Species: RAT, Strain/Sex: SPRAGUE-DAWLEY/FEMALE, Route: INTRAVENOUS, Dose: 5 MG IN 1 ML LIPID EMULSION ONCE, Tumor Site: Type of Lesion: MAMMARY GLAND", "result": "active; positive"},
      {"measurement": "carcinogen call", "setting": "Species: RAT, Strain/Sex: SPRAGUE-DAWLEY/FEMALE, Route: ORAL, Dose: 10 MG IN SESAME OIL 3 TIMES AT 14 D INTERVALS, Tumor Site: Type of Lesion: MAMMARY GLAND: ADENOMA, ADENOCARCINOMA", "result": "active; positive"},
      {"measurement": "carcinogen call", "setting": "Species: RAT, Strain/Sex: SPRAGUE-DAWLEY/FEMALE, Route: ORAL, Dose: 20 MG IN SESAME OIL ONCE, Tumor Site: Type of Lesion: MAMMARY GLAND: ADENOMA, FIBROADENOMA, CARCINOMA, ADENOCARCINOMA", "result": "active; positive"},
      {"measurement": "carcinogen call", "setting": "Species: RAT, Strain/Sex: SPRAGUE-DAWLEY/FEMALE, Route: SUBCUTANEOUS, Dose: 0, 2 UMOL IN 0.25 ML TRIOCTANOIN INTO LEFT HIND LEG AT ABOUT 40 D OF AGE FOLLOWED BY SECOND DOSE 6 D LATER (STUDY DURATI, Tumor Site: Type of Lesion: INJECTION SITE: SARCOMA", "result": "active; positive"},
      {"measurement": "carcinogen call", "setting": "Species: RAT, Strain/Sex: SPRAGUE-DAWLEY/FEMALE, Route: SUBCUTANEOUS, Dose: 0, 2 UMOL IN 0.25 ML TRIOCTANOIN ONCE INTO LEFT HIND LEG AT ABOUT 40 D OF AGE (STUDY DURATION: 16 MO), Tumor Site: Type of Lesion: INJECTION SITE: SARCOMA", "result": "active; positive"},
      {"measurement": "carcinogen call", "setting": "Species: RAT, Strain/Sex: STRAIN-CB/FEMALE, Route: SUBCUTANEOUS, Dose: 0.25 ML OF 1% SOLN IN DMSO ONCE, Tumor Site: Type of Lesion: INJECTION SITE: SPINDLE CELL SARCOMA", "result": "active; positive"},
      {"measurement": "carcinogen call", "setting": "Species: RAT, Strain/Sex: WISTAR/FEMALE, Route: GAVAGE, Dose: 0.4 ML OF 0.5% SUNFLOWER SEED OIL SOLN 2/WK FOR 4.5 MO (TOTAL DOSE: 68 MG), Tumor Site: Type of Lesion: HEMATOPOIETIC SYSTEM (LEUKEMIA)", "result": "active; positive"},
      {"measurement": "carcinogen call", "setting": "Species: RAT, Strain/Sex: WISTAR/FEMALE, Route: INJECTION, Dose: 0, 0.05 ML OF A 1% SOLUTION IN ACETONE INJECTED INTO SUBMANDIBULAR SALIVARY GLANDS AFTER EXCISION OF A SMALL PORTION OF, Tumor Site: Type of Lesion: SALIVARY GLAND: ADENOCARCINOMA", "result": "active; positive"},
      {"measurement": "carcinogen call", "setting": "Species: RAT, Strain/Sex: WISTAR/FEMALE, Route: INTRADUCTAL, Dose: 0, 1 MG IN 0.05 ML OF SESAME OIL INJECTED INTO MAIN MAMMARY DUCT ON THE 10TH PUERPERAL DAY (STUDY DURATION: 20 WK), Tumor Site: Type of Lesion: MAMMARY GLAND: DUCTAL CARCINOMA", "result": "active; positive"},
      {"measurement": "carcinogen call", "setting": "Species: RAT, Strain/Sex: WISTAR/FEMALE, Route: ORAL, Dose: 10 MG IN SESAME OIL 3 TIMES AT 14 D INTERVALS, Tumor Site: Type of Lesion: MAMMARY GLAND: ADENOMA, ADENOCARCINOMA", "result": "active; positive"},
      {"measurement": "carcinogen call", "setting": "Species: RAT, Strain/Sex: WISTAR/FURTH/FEMALE, Route: OVARIAN IMPLANTATION OF CARCINOGEN-COATED SUTURE AT 7 WKS OF AGE, Dose: 200 UG IN SUTURE ONCE (STUDY DURATION: 1 YR), Tumor Site: Type of Lesion: OVARY: ADENOCARCINOMA, 77%", "result": "active; positive"},
      {"measurement": "carcinogen call", "setting": "Species: RAT, Strain/Sex: WISTAR/MALE, Route: INJECTION, Dose: 0, 0.05 ML OF A 1% SOLUTION IN ACETONE INJECTED INTO SUBMANDIBULAR SALIVARY GLANDS AFTER EXCISION OF A SMALL PORTION OF, Tumor Site: Type of Lesion: SALIVARY GLAND: FIBROSARCOMA", "result": "active; positive"},
      {"measurement": "carcinogen call", "setting": "Species: RAT, Strain/Sex: ZUCKER/FEMALE, LEAN, Route: ORAL (GAVAGE), Dose: 65 MG/KG ONCE AT 50 D OF AGE (STUDY DURATION: 139 D), Tumor Site: Type of Lesion: MAMMARY: TUMOR 32%, LATENCY 86 D", "result": "active; positive; lean rats had longer latent period and lower tumor incidence than obes"},
      {"measurement": "carcinogen call", "setting": "Species: RAT, Strain/Sex: ZUCKER/FEMALE, OBESE, Route: ORAL (GAVAGE), Dose: 65 MG/KG ONCE AT 50 D OF AGE (STUDY DURATION: 139 D), Tumor Site: Type of Lesion: MAMMARY: TUMOR 68%, LATENCY 49 D", "result": "active; positive; obese rats had higher tumor incidence and shorter latent period than l"},
      {"measurement": "carcinogen call", "setting": "Species: Rat, Strain/Sex: Fischer 344/Female, Route: Direct application to ovary, Dose: 100 ug in sesame oil, once, study duration 5 months", "result": "inactive; negative"},
      {"measurement": "carcinogen call", "setting": "Species: SHREW, Strain/Sex: JAPANESE/FEMALE, Route: INTRAPERITONEAL, Dose: 0, 1.25, 2.5 MG 1/WK FOR 4 WK (STUDY DURATION: 50 WK), Dose: 0, 1.25, 2.5 MG 1/WK FOR 4 WK (STUDY DURATION: 50 WK), Tumor Site: Type of Lesion: HEMATOPOIETIC SYSTEM: LEUKEMIA", "result": "active; positive"},
      {"measurement": "carcinogen call", "setting": "Species: SHREW, Strain/Sex: JAPANESE/FEMALE, Route: INTRAPERITONEAL, Dose: 0, 1.25, 2.5 MG 1/WK FOR 8 WK (STUDY DURATION: 50 WK), Dose: 0, 1.25, 2.5 MG 1/WK FOR 8 WK (STUDY DURATION: 50 WK), Tumor Site: Type of Lesion: HEMATOPOIETIC SYSTEM: LEUKEMIA", "result": "active; positive"},
      {"measurement": "carcinogen call", "setting": "Species: SHREW, Strain/Sex: JAPANESE/FEMALE, Route: SUBCUTANEOUS, Dose: 0, 1 MG INTO RIGHT INGUINAL SUBCUTANEOUS TISSUE OVER THE MAMMARY GLAND ONCE (STUDY DURATION: 50 WK), Tumor Site: Type of Lesion: INJECTION SITE: SARCOMA", "result": "active; positive"}
    ]}
  ]
}
